Experimental data published in PubChem BioAssay (NCI).
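The compound was tested at five concentrations on cells cultured in 96-well plates, with a 48-hour exposure period. TGI: total growth inhibition.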

How the values were obtained:
Assay in all cases: NCI anticancer screen, dose series, 48 h
BT-549 breast = system: BT-549 breast
COLO 205 colon = system: COLO 205 colon
HCT-116 colon = system: HCT-116 colon
HOP-62 NSCLC = system: HOP-62 NSCLC
HS 578T breast = system: HS 578T breast
HT29 colon = system: HT29 colon
NCI-H226 lung = system: NCI-H226 lung
OVCAR-3 ovarian = system: OVCAR-3 ovarian
OVCAR-5 ovarian = system: OVCAR-5 ovarian
RXF 393 renal = system: RXF 393 renal
SF-268 CNS = system: SF-268 CNS
SF-295 CNS = system: SF-295 CNS
SW-620 colon = system: SW-620 colon
T-47D breast = system: T-47D breast
U251 CNS = system: U251 CNS
UACC-257 melanoma = system: UACC-257 melanoma
DU-145 prostate = system: DU-145 prostate
MDA-N = system: MDA-N
SN12C renal = system: SN12C renal

| Structure (SMILES) | TGI (BT-549 breast) [µM] | TGI (COLO 205 colon) [µM] | TGI (HCT-116 colon) [µM] | TGI (HOP-62 NSCLC) [µM] | TGI (HS 578T breast) [µM] | TGI (HT29 colon) [µM] | TGI (NCI-H226 lung) [µM] | TGI (OVCAR-3 ovarian) [µM] | TGI (OVCAR-5 ovarian) [µM] | TGI (RXF 393 renal) [µM] | TGI (SF-268 CNS) [µM] | TGI (SF-295 CNS) [µM] | TGI (SW-620 colon) [µM] | TGI (T-47D breast) [µM] | TGI (U251 CNS) [µM] | TGI (UACC-257 melanoma) [µM] | TGI (DU-145 prostate) [µM] | TGI (MDA-N) [µM] | TGI (SN12C renal) [µM] |
| --- | --- | --- | --- | --- | --- | --- | --- | --- | --- | --- | --- | --- | --- | --- | --- | --- | --- | --- | --- |
| O=C(NNC1=NCCCCN1)Nc1ccc(Cl)cc1 | > 100 | > 100 | > 100 | > 100 | > 100 | > 100 | > 100 | > 100 | > 100 | > 100 | > 100 | > 100 | > 100 | > 100 | > 100 | > 100 |  |  |  |
| C[Si](C)(N[Si](C)(C)OCCc1ccccc1)OCCc1ccccc1 | > 100 |  | > 100 | > 100 |  | > 100 | > 100 | > 100 | > 100 | > 100 |  | > 100 | > 100 | > 100 | > 100 | > 100 | > 100 | > 100 | > 100 |
| CC(=NNC(=S)Nc1cccc(C)c1)c1cccc(C(C)=NNC(=S)Nc2cccc(C)c2)n1 |  | 38.5 | 37.8 | > 100 | > 100 | > 100 | 95.1 | 26.8 | > 100 | 61.1 | > 100 | 34 | 70.5 | > 100 | 93.3 | 0.0745 | > 100 | > 100 | > 100 |
| O=c1cc(CSc2c(-c3ccccc3)c(=O)n(-c3ccccc3)c(=S)n2-c2ccccc2)[nH]c(=O)[nH]1 | > 100 | > 100 | > 100 | > 100 |  | > 100 |  | > 100 | > 100 | > 100 | > 100 |  | > 100 | > 100 | > 100 | > 100 | > 100 | > 100 | > 100 |
| CCOC(=O)C1(N)CCc2[nH][nH]c(=O)c2C1 (stereo not given) | > 100 | > 100 | > 100 | > 100 | > 100 | > 100 | > 100 | > 100 | > 100 |  |  | > 100 | > 100 | > 100 | > 100 | > 100 |  | > 100 |  |
| CCOC(=O)C1C(C)C2(C#N)C(=N)OC1(C)C2(C#N)C#N (stereo not given) |  | > 100 | > 100 |  | > 100 | > 100 | > 100 |  | > 100 | 92.7 | > 100 | > 100 | > 100 | > 100 | > 100 | > 100 | > 100 | > 100 | > 100 |
| COC(=O)C(C)(C)[C@@H]1OC(=O)N(S(=O)(=O)c2c(C)cc(C)cc2C)[C@H]1C(C)C |  | > 100 | > 100 | > 100 | > 100 | > 100 | > 100 | > 100 | > 100 | > 100 | > 100 | > 100 | > 100 | > 100 | > 100 | > 100 | > 100 | > 100 | > 100 |
